# Key:
# ROS = ROS generation, CM-H2DCFDA conversion; type: cell-based; conditions: incubation of cells with the ROS scavenger prior to addition of BZL101, FIG. 10
# [1] = test system: subcutaneous cancer xenografts; type: in vivo, mice; conditions: BZL101 0.5 ml oral gavage every third day; cyclophosphamide 25 mg/Kg/day in drinking water; FIG. 6
# Experimental: As in Example 1, above, 10^5 cells were administered to each animal subcutaneously on Day 0. The animals were divided into four groups. The control group received only normal drinking water. The cyclophosphamide only group received 25 mg/Kg/day of cyclophosphamide in their drinking water.
SMILES,effect on BZL101-induced ROS generation (ROS),tumor growth [1]
CC(=O)N[C@@H](CS)C(=O)O [N-acetyl-cysteine],prevented most of the increase in ROS generation,
O=P1(N(CCCl)CCCl)NCCCO1 (centres unmarked) [cyclophosphamide],,inhibited tumor growth as compared to the control

# Reference: US20090130101A1, “ANTI-CANCER THERAPY WITH AN EXTRACT OF SCUTELLARIA BARBATA” (BIONOVO, INC., priority 2007, published 2009)
